Experimental data taken from patent US20160222014A1, “COMPOUNDS FOR REGULATING FAK AND/OR SRC PATHWAYS” (ASANA BIOSCIENCES, LLC, priority 2013, published 2016).

Biological target: T1, FAK phosphorylated at Y397 in HEK-FAK cell line overexpressing human FL FAK protein (Homo sapiens, UniProt Q05397)
T1 construct: expressed in transfected cells
Assay: Cell based assay, Phospho-FAK ELISA
Conditions: HEK stb; read-out: pFAK EC50 (μM) HEK stb
In short: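 Stable HEK293 line overexpressing full-length human FAK, kept under 0.8 mg/mL Zeocin. In lysates, FAK Y397 autophosphorylation was measured by sandwich ELISA: total-FAK capture antibody, biotinylated pY397-specific detection antibody, streptavidin-HRP with TMB substrate.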

T1 sequence (Q05397 whole entry): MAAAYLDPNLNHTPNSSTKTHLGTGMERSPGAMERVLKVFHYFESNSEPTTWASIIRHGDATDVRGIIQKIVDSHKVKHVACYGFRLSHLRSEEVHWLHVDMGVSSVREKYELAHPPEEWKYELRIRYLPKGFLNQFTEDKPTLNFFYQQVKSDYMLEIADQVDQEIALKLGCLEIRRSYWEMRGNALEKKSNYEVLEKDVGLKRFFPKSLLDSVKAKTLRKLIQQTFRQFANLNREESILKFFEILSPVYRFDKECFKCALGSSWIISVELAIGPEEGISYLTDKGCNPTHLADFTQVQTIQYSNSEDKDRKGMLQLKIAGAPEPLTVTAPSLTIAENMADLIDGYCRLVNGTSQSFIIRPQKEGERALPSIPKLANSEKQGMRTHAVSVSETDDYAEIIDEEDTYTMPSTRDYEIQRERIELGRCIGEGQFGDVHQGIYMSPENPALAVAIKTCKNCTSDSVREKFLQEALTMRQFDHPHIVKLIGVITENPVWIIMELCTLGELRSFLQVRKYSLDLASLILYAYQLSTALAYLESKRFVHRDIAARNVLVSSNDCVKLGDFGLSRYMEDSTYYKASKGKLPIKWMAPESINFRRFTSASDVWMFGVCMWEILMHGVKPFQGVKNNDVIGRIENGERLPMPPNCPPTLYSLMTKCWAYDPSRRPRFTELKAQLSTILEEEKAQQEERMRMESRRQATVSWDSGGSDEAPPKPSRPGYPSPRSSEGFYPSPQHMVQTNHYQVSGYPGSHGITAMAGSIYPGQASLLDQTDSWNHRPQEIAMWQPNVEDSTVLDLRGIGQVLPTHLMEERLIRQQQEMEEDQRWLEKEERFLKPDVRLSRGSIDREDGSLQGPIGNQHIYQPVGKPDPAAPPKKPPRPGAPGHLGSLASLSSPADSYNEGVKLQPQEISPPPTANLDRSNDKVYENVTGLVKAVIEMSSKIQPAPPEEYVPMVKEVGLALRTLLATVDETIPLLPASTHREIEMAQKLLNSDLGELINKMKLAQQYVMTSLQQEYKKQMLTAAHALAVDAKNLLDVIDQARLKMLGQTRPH

SMILES | EC50
O=C1CCc2cc(Nc3ncc4ccn(Cc5cccnc5N5CCCS5(=O)=O)c4n3)ccc2N1 [Example 216] | > 1 µM
O=S(=O)(c1cccc2nsnc12)n1ccc2cnc(Nc3ccc(N4CCNCC4)cc3)nc21 [Example 253] | > 1 µM
CC(=O)Nc1cccc(Nc2cc3c(cn2)cnn3Cc2ccccc2OC(F)F)c1 [Example 64] | > 1 µM
CN(c1ncccc1Cn1ccc2cnc(Nc3ccc(NCCO)cc3)nc21)S(C)(=O)=O [Example 201] | > 1 µM
CN(c1ncccc1Cn1ncc2cnc(Nc3ccc4[nH]c(=O)[nH]c4c3)cc21)S(C)(=O)=O [Example 142] | > 1 µM
FC(F)Oc1ccccc1Cn1ccc2cnc(Nc3ccc4ncsc4c3)nc21 [Example 36] | > 1 µM
O=C1CCc2cc(Nc3ncc4cnn(Cc5ccccc5OC(F)F)c4n3)ccc2N1 [Example 21] | > 1 µM
Cn1cc(Nc2ncc3ccn(S(=O)(=O)c4cccc5cccnc45)c3n2)cn1 [Example 318] | > 1 µM
CN(c1ncccc1Cn1ncc2cnc(Nc3ccc4c(c3)CCC(=O)N4)nc21)S(C)(=O)=O [Example 202] | > 1 µM

The next lines start with the values.

EC50 | SMILES
> 1 µM | CN(c1ncccc1Cn1ccc2cnc(Nc3ccc(N4CCCC4CO)cc3)nc21)S(C)(=O)=O (centres unmarked) [Example 536]
> 1 µM | COc1ccccc1S(=O)(=O)n1ncc2cnc(Nc3ccc(N4CCNCC4)cc3)nc21 [Example 335]
> 1 µM | FC(F)Oc1ccccc1Cn1ncc2cnc(Nc3ccc4ncsc4c3)cc21 [Example 82]
< 0.02 µM | Cc1cc(Nc2ncc3cnn(S(=O)(=O)c4cccc5cccnc45)c3n2)ccc1N1CCNCC1 [Example 332]
< 0.02 µM | COc1cc(N2CCNCC2)ccc1Nc1cc2c(ccn2S(=O)(=O)c2cccc3cccnc23)cn1 [Example 330, N-(2-Methoxy-4-(piperazin-1-yl)phenyl)-1-(quinolin-8-ylsulfonyl)-1H-pyrrolo[3,2-c]pyridin-6-amine]
